Test results reported in patent US11479539B2, “Small molecule modulators of the BTB domain of Keap1” (MedImmune Limited, priority 2017, dated 2022).

These molecules were tested against Keap1 (Homo sapiens (Human), UniProt Q14145) (assay: HEK293 ARE luciferase assay). Details: HEK-293 ARE firefly luciferase transiently transfected cells; 18 h incubation; mean of 1 to 20 individual measurements.
Chain of Keap1 (Q14145 whole entry): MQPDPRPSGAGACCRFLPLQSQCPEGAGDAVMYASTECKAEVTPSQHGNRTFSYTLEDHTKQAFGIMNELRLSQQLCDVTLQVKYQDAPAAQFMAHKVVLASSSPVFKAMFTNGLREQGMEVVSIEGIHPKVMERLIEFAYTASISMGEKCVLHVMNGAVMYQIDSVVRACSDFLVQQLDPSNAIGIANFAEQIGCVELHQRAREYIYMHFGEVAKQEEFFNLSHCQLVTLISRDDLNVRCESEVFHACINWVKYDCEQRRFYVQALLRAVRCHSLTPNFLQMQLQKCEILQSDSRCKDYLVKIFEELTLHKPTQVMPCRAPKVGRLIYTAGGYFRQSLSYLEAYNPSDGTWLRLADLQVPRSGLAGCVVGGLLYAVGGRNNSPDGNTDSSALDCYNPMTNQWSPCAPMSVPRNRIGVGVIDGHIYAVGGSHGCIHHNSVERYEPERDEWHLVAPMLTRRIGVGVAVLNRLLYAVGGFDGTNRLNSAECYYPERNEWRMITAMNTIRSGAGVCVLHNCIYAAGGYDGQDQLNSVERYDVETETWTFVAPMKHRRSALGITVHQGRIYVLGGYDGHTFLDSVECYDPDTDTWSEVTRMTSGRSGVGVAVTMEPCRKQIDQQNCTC
Assay type: cell-based
Procedure, shortened: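 Transiently transfected HEK-293 ARE firefly luciferase cells (10,000/well, DMEM with 10% FCS) exposed to compound, 10-point curve from 100 μM top, 0.3% DMSO, 18 h at 37 °C. SteadyGlo luminescence; activity normalised to 30 μM tBHQ (stimulator) and DMSO (neutral), activity threshold 50; means of 1-20 measurements.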
With COC1(c2ncc(Cl)cc2C(F)F)C=C(C#N)C(=O)C2(CC2)C1 (single isomer, unassigned) [Compound 238, 7-[5-chloro-3-(difluoromethyl)pyridin-2-yl]-7-methoxy-4-oxospiro[2.5]oct-5-ene-5-carbonitrile] the EC50 was 44 nM. Molecule COC1(c2ncc(F)cc2-c2c(C)nn(C)c2C)C=C(C#N)C(=O)C(C)(C)C1 (single isomer, unassigned) [Compound 92, 3-[5-fluoro-3-(1,3,5-trimethylpyrazol-4-yl)-2-pyridyl]-3-methoxy-5,5-dimethyl-6-oxo-cyclohexene-1-carbonitrile] has an EC50 of 67 nM. With COC1(c2ncc(F)cc2-c2ccc3ncnn3c2)C=C(C#N)C(=O)C(C)(C)C1 (single isomer, unassigned) [Compound 212, 3-[5-fluoro-3-([1,2,4]triazolo[1,5-a]pyridin-6-yl)pyridin-2-yl]-3-methoxy-5,5-dimethyl-6-oxocyclohex-1-ene-1-carbonitrile] the EC50 was 7 nM. COC1(c2nc(C)c(Br)s2)C=C(C#N)C(=O)C(C)(C)C1 (single isomer, unassigned) [Compound 98, 3-(5-bromo-4-methyl-1,3-thiazol-2-yl)-3-methoxy-5,5-dimethyl-6-oxocyclohex-1-ene-1-carbonitrile] gave an EC50 of 79 nM. Work on COC1(c2ncc(F)cc2-c2cc[nH]c(=O)c2)C=C(C#N)C(=O)C(C)(C)C1 (stereo not shown) [Compound 192, 3-(5-fluoro-2′-oxo[1′,2′-dihydro[3,4′-bipyridine]]-2-yl)-3-methoxy-5,5-dimethyl-6-oxocyclohex-1-ene-1-carbonitrile] yielded an EC50 of over 10000 nM. COC1(c2cccc(-c3cnn(C)c3)n2)C=C(C#N)C(=O)C(C)(C)C1 (single isomer, unassigned) [Compound 107, 3-methoxy-5,5-dimethyl-3-(6-(1-methyl-1H-pyrazol-4-yl)pyridin-2-yl)-6-oxocyclohex-1-ene-1-carbonitrile] showed an EC50 of 37 nM. With COC1(c2ncc(F)cc2C#CC(C)C)C=C(C#N)C(=O)C(C)(C)C1 (stereo not shown) [Compound 165, 3-[5-fluoro-3-(3-methylbut-1-yn-1-yl)pyridin-2-yl]-3-methoxy-5,5-dimethyl-6-oxocyclohex-1-ene-1-carbonitrile] the EC50 was 151 nM. With COC1(c2ncc(F)cc2-c2cncc(C#N)c2)C=C(C#N)C(=O)C(C)(C)C1 (single isomer, unassigned) [Compound 85, 2′-(3-cyano-1-methoxy-5,5-dimethyl-4-oxocyclohex-2-enyl)-5′-fluoro-3,3′-bipyridine-5-carbonitrile] the EC50 was 6 nM. Work on COC1(c2cccc(-c3cccnc3)n2)C=C(C#N)C(=O)C(C)(C)C1 (stereo not shown) [Compound 116, 3-([2,3′-bipyridin]-6-yl)-3-methoxy-5,5-dimethyl-6-oxocyclohex-1-ene-1-carbonitrile] yielded an EC50 of 382 nM. With COC1(c2cccc(-c3cnn(C)c3)n2)C=C(C#N)C(=O)C2(CC2)C1 (stereo not shown) [Compound 126, 7-methoxy-7-[6-(1-methyl-1H-pyrazol-4-yl)pyridin-2-yl]-4-oxospiro[2.5]oct-5-ene-5-carbonitrile] the EC50 was 85 nM. COC1(c2nc(C)c(-c3ccccn3)s2)C=C(C#N)C(=O)C2(CC2)C1 (single isomer, unassigned) [Compound 102, 7-methoxy-7-[4-methyl-5-(pyridin-2-yl)-1,3-thiazol-2-yl]-4-oxospiro[2.5]oct-5-ene-5-carbonitrile] showed an EC50 of 73 nM. Work on COC1(c2ncc(F)cc2-c2ccnc(S(=O)(=O)N(C)C)c2)C=C(C#N)C(=O)C(C)(C)C1 (single isomer, unassigned) [Compound 207, 2-[3-cyano-1-methoxy-5,5-dimethyl-4-oxocyclohex-2-en-1-yl]-5-fluoro-N,N-dimethyl[3,4′-bipyridine]-2′-sulfonamide] yielded an EC50 of 48 nM. CCn1cc(-c2cc(F)cnc2C2(OC)C=C(C#N)C(=O)C(C)(C)C2)cn1 (stereo not shown) [Compound 181, 3-[3-(1-ethyl-1H-pyrazol-4-yl)-5-fluoropyridin-2-yl]-3-methoxy-5,5-dimethyl-6-oxocyclohex-1-ene-1-carbonitrile] showed an EC50 of 68 nM. Work on COC1(c2cccc(-c3cncnc3)n2)C=C(C#N)C(=O)C(C)(C)C1 (stereo not shown) [Compound 117, 3-methoxy-5,5-dimethyl-6-oxo-3-[6-(pyrimidin-5-yl)pyridin-2-yl]cyclohex-1-ene-1-carbonitrile] yielded an EC50 of 34 nM. For COC1(c2ncccc2C(F)(F)F)C=C(C#N)C(=O)C(C)(C)C1 (single isomer, unassigned) [Compound 15, 3-methoxy-5,5-dimethyl-6-oxo-3-(3-(trifluoromethyl)pyridin-2-yl)cyclohex-1-enecarbonitrile], the EC50 was 24 nM. Molecule CO[C@]1(c2ncsc2C)C=C(C#N)C(=O)C(C)(C)C1 [Compound 38, (S)-3-methoxy-5,5-dimethyl-3-(5-methylthiazol-4-yl)-6-oxocyclohex-1-enecarbonitrile] has an EC50 of 132 nM. For CC#Cc1cccc(C2(OC)C=C(C#N)C(=O)C(C)(C)C2)n1 (stereo not shown) [Compound 103, 3-Methoxy-5,5-dimethyl-6-oxo-3-(6-(prop-1-ynyl)pyridin-2-yl)cyclohex-1-enecarbonitrile], the EC50 was 77 nM. COC1(c2ncc(F)cc2-c2cncc(S(C)(=O)=O)c2)C=C(C#N)C(=O)C(C)(C)C1 (single isomer, unassigned) [Compound 235, 3-[5-fluoro-5′-(methylsulfonyl)[3,3′-bipyridin]-2-yl)-3-methoxy-5,5-dimethyl-6-oxocyclohex-1-ene-1-carbonitrile] was tested, and the EC50 was 79 nM. COC1(c2ncccc2C(F)(F)F)C=C(C#N)C(=O)C2(CC2)C1 (stereo not shown) [Compound 133, 7-methoxy-4-oxo-7-[3-(trifluoromethyl)pyridin-2-yl]spiro[2.5]oct-5-ene-5-carbonitrile] was tested, and the EC50 was 76 nM. COC1(c2ncc(F)cc2C(F)F)C=C(C#N)C(=O)C2(CC2)C1 (single isomer, unassigned) [Compound 63, 7-[3-(difluoromethyl)-5-fluoropyridin-2-yl]-7-methoxy-4-oxospiro[2.5]oct-5-ene-5-carbonitrile] was tested, and the EC50 was 18 nM. In the case of COC1(c2cccc(-c3cncnc3)n2)C=C(C#N)C(=O)C2(CC2)C1 (single isomer, unassigned) [Compound 51, 7-methoxy-4-oxo-7-(6-(pyrimidin-5-yl)pyridin-2-yl)spiro[2.5]oct-5-ene-5-carbonitrile], the EC50 is reported as 48 nM. COC1(c2cncc(C)n2)C=C(C#N)C(=O)C2(CC2)C1 (single isomer, unassigned) [Compound 54, 7-methoxy-7-(6-methylpyrazin-2-yl)-4-oxospiro[2.5]oct-5-ene-5-carbonitrile] was tested, and the EC50 was 363 nM. Molecule COC1(c2ncccc2C(F)(F)F)C=C(C#N)C(=O)C2(CCCC2)C1 (stereo not shown) [Compound 148, 9-methoxy-6-oxo-9-[3-(trifluoromethyl)pyridin-2-yl]spiro[4.5]dec-7-ene-7-carbonitrile] has an EC50 of 252 nM. In the case of COC1(c2cccc(-c3cnn(C)c3)n2)C=C(C#N)C(=O)C2(CC2)C1 (single isomer, unassigned) [Compound 49, 7-methoxy-7-(6-(1-methyl-1H-pyrazol-4-yl)pyridin-2-yl)-4-oxospiro[2.5]oct-5-ene-5-carbonitrile], the EC50 is reported as 138 nM. COC1(c2ccc(F)cn2)C=C(C#N)C(=O)C(C)(C)C1 (stereo not shown) [Compound 123, 3-(5-fluoropyridin-2-yl)-3-methoxy-5,5-dimethyl-6-oxocyclohex-1-ene-1-carbonitrile] was tested, and the EC50 was 61 nM.
